This passage reports IC50 results from PMC9685933, “Tiliroside suppresses triple-negative breast cancer as a multifunctional CAXII inhibitor” (Cancer Cell International, 2022).

A word on the IC50: it is the midpoint of a concentration-inhibition curve.

This assay concerns the target T1, CAXII (Homo sapiens, UniProt O43570).
T1 construct: gene CA12
The assay is described as follows: CAXII esterase activity assay (4-nitrophenol absorbance) in MDA-MB-231 cells; […] in BT-549 cells. Type of assay: cell-based.

T1 sequence (O43570 25-354): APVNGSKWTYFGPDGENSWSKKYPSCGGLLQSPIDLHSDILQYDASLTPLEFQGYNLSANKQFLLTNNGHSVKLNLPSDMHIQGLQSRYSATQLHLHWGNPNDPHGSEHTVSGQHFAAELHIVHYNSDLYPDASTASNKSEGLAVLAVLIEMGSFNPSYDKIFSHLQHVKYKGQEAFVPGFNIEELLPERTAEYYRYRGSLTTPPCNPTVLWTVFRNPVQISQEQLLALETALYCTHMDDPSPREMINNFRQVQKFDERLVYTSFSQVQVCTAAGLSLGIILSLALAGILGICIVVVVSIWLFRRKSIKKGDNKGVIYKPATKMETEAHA

`O=C(/C=C/c1ccc(O)cc1)OC[C@H]1O[C@@H](Oc2c(-c3ccc(O)cc3)oc3cc(O)cc(O)c3c2=O)[C@H](O)[C@@H](O)[C@@H]1O` [TS, Tiliroside] had an IC50 of 20.9 ± 5.8 µM.
